# How the values were obtained:
# L-M(TK^−) cells [1] = assay: Oxonol displacement currents (membrane translocation), whole-cell voltage clamp; type: cell-based; settings: for translocation time constant: voltage clamped mammalian cells
# Protocol: (§1) All cells were grown and handled like L-M(TK^−) except where noted. L-M(TK^−) cells were grown in Dulbecco's Modified Eagle Media (Gibco; Grand Island, N.Y.) with 10% fetal bovine serum (FBS) and 1% penicillin streptomycin (PS) (Gemini; Calabasas, Calif.). B104 cells were differentiated with 1 μM retinoic acid for 5 days prior to use. The cells were plated on glass coverslips at least one day before use. The adherent cells were washed and maintained in 2.5–3.0 mL of HBSS with 1 g/L glucose and 20 mM HEPES at pH 7.4. A freshly prepared 75 μM aqueous solution of the appropriate oxonol was made prior to an experiment from a DMSO stock solution. The cells were stained by mixing 100 μL of the oxonol solution with 750 μL of the bath and then adding the diluted solution to the cells. The dye was left for 30–40 minutes at a bath concentration of […]. 1.5 mM β-cyclodextrin in the bath solution was necessary for cell loading of DiSBA-C6-(3). The butyl and ethyl derivatives were water-soluble enough to load cells with out β-cyclodextrin complexation. DiSBA-C10-(3) was loaded in a pH 7.4 solution containing 290 mM sucrose and 10 mM HEPES, 364 mOsm, for 10 min at a bath concentration of […]. DiSBA-C10-(3) labeling was quenched by replacing the bath with HBSS solution. The cells were stained with 15 µg/mL of FL-WGA for 15 minutes. The B104 cells required a 125 µg/mL bath concentration to give satisfactory lectin staining. The excess dyes were removed with repeated washes with HBSS. If the excess ethyl or butyl oxonol derivatives were left in the bath, slow currents and fluorescence changes due to redistribution of the dyes into the cell were observed during depolarizations greater than 1 s. The cardiac myocytes [Henderson, S. A., Spencer, M., Sen, A., Kumar, C., Siddiqui, M. A. Q., and Chien, K. R. 1989. Structure organization, and expression of the rat cardiac myosin light chain-2 gene. J. Biol. Chem. 264:18142–18146] were a gift of Professor Kenneth Chien, UCSD. The Jurkat lymphocyte suspensions were grown in RPMI media with 5% heat inactivated FBS and 1% PS. 15–20 mL aliquots of the cellular suspension were washed three times before and after dye staining by centrifugation at 100×g for 4 minutes followed by additions of fresh HBSS.
# Patch clamp recording were made using an Axopatch 1-D amplifier equipped with a CV-4 headstage from Axon Instruments (Foster City, Calif.). The data were digitized and stored using the PCLAMP software. The pH 7.4 intracellular solution used contained 125 mM potassium gluconate, 1 mM CaCl2.2H2O, 2 mM MgCl2.6H2O, 11 mM EGTA, and 10 mM HEPES. For the B104 cells, 4 mM ATP and 0.5 mM GTP were added.
# The translocation rates were studied in L-M(TK^−) cells using whole-cell voltage clamp recording. The L-M(TK^−) cells were chosen because they have very low background currents and are easy to patch clamp. These cells have a resting potential of −5 mV and no evident voltage activated currents.
# 12.5 ms long voltage steps at 15 mV increments were applied to the cell, from a holding potential of −70 mV. The larger, faster transients due to simple membrane capacitance transient could be minimized using the capacitance and series resistance compensation capabilities of the Axopatch amplifier, allowing the displacement currents to be clearly observed. The currents are due to redistribution of the membrane-bound oxonol in response to 8 depolarizations. The time constant for the displacement current is 2 ms for 120 mV depolarization. Equal amounts of charge move at the onset and conclusion of the voltage step, but in opposite directions, consistent with redistribution of stored ions from one energy minimum to the other across the plasma membrane. Furthermore, the induced capacitance dq/dV from the oxonol movement is calculated to be ˜5 pF for 100 mV depolarization. This value corresponds to roughly one third the membrane capacitance without the dye. […] The optimum density of sodium channels in an unmyelinated nerve. Philos. Trans. R. Soc. […]
# L-M(TK^−) cells [2] = assay: Voltage-sensitive FRET fluorescence changes in voltage clamped L-M(TK^−) cells; type: cell-based
# Protocol: as §1, with “The excess dyes were removed with repeated washes with HBSS.” left out, “The cardiac myocytes [Henderson, S. A., Spencer, M., Sen, A., Kumar, C., Siddiqui, M. A. Q., and Chien, K. R. 1989. Structure organization, and expression of the rat cardiac myosin light chain-2 gene. J. Biol. Chem. 264:18142–18146] were a gift of Professor Kenneth Chien, UCSD. The Jurkat lymphocyte suspensions were grown in RPMI media with 5% heat inactivated FBS and 1% PS. 15–20 mL aliquots of the cellular suspension were washed three times before and after dye staining by centrifugation at 100×g for 4 minutes followed by additions of fresh HBSS.” left out
# (§2) The fluorescently labeled cells were excited with light from a 75 W xenon lamp passed through 450–490 nm excitation interference filters. […] The long wavelength Texas Red fluorescence was passed through a 605 nm DF55 bandpass filter. Voltage dependent fluorescence changes in single cells were measured using a Nikon microscope attached to a Photoscan II photometer equipped with two R928 PMTs for dual emission recordings. […]
# Jurkat cell suspensions = assay: Quenching of FL-WGA fluorescence by oxonol titration in cell suspensions; type: cell-based; settings: cells labeled with FL-WGA
# Protocol: (§3) All cells were grown and handled like L-M(TK^−) except where noted. L-M(TK^−) cells were grown in Dulbecco's Modified Eagle Media (Gibco; Grand Island, N.Y.) with 10% fetal bovine serum (FBS) and 1% penicillin streptomycin (PS) (Gemini; Calabasas, Calif.). B104 cells were differentiated with 1 μM retinoic acid for 5 days prior to use. The cells were plated on glass coverslips at least one day before use. The adherent cells were washed and maintained in 2.5–3.0 mL of HBSS with 1 g/L glucose and 20 mM HEPES at pH 7.4. A freshly prepared 75 μM aqueous solution of the appropriate oxonol was made prior to an experiment from a DMSO stock solution. […] If the excess ethyl or butyl oxonol derivatives were left in the bath, slow currents and fluorescence changes due to redistribution of the dyes into the cell were observed during depolarizations greater than 1 s. […]
# To transduce charge displacements into optical signals, the oxonol fluorescences at the intracellular and extracellular membrane binding sites is made different. Fluorescence asymmetry is created with the introduction of fluorescently labeled lectins bound to the extracellular membrane surface. […] The extinction coefficient and the fluorescence quantum yield of FL-WGA were measured to be 222,000 M^−1cm^−1 (˜3 fluorescein/protein) and 0.23, respectively. […]
# astrocytoma cells = assay: Pentamethine oxonol translocation, displacement currents in voltage-clamped astrocytoma cells; type: cell-based; settings: for displacement current time constant: voltage steps of +20–120 mV; for translocation time constant (crosses the membrane): pentamethine oxonols, DiSBA-C6-(5) value at 20
# From the text: The membrane translocation rates for the pentamethines are 5–8 times faster than the trimethine analogues. […] The trimethine analogue translocates […] under identical conditions. The displacement currents of DiSBAC6(5) decay very rapidly and are difficult to separate from the cell capacitance. As a result of the large voltage-dependent signal from the Cou-PE/DiSBAC6(5) pair, it was possible to optically measure the speed of voltage response of DiSBAC6(5). The time constant for DiSBAC6(5) translocation was measured optically at 0.383±0.032 ms in response to a 100 mV depolarization step, using FRET from asymmetrically labeled Cou-PE. The enhanced translocation rates result from the greater charge delocalization and slightly more hydrophobicity of the pentamethine oxonols. The rapid voltage response of DiSBAC6(5) is the fastest known for a permeant, highly fluorescent molecule. The submillisecond response is fast enough to accurately register action potentials of single neurons.
# [3] = tested on: targeted GFP expressing cells; assay: Temporal response of the GFP/oxonol FRET change; type: cell-based; settings: oxonol acceptors; identical to displacement current time constants
# From the text: The temporal response of the GFP/oxonol FRET change is dependent on the oxonol translocation rate and follows the previously observed trend with oxonol acceptors, faster responses with more hydrophobic acceptors. The measured time constants for the ethyl and butyl oxonol acceptors are ˜50 and ˜5 ms respectively in the targeted GFP expressing cells. The FRET response and the electrophysiologically measured displacement currents have identical time constants. The measured response times are 2–4 fold faster than previously reported and may be a property of the cells used or from a slight difference in temperature.
# B104 neuroblastoma cells = assay: Voltage-sensitive FRET in differentiated B104 neuroblastoma cells; type: cell-based; settings: oxonol as FRET donor to Cy5 labeled PE
# Protocol: as §3, §2
# 1321N astrocytoma cells = assay: Voltage-sensitive FRET fluorescence changes in voltage clamped astrocytoma cells; type: cell-based; settings: 100 mV depolarization step, FRET from asymmetrically labeled Cou-PE
# Protocol: as §3, §2
# neuroblastoma = settings: cited from earlier work
# [4] = voltage-clamped fibroblasts, 100 mV depolarization at 20 C
smiles,measurement,setting,value
"CCCCN1C(=O)C(=CC=Cc2c(O)n(CCCC)c(=S)n(CCCC)c2=O)C(=O)N(CCCC)C1=S [DiSBA-C4-(3), Bis-(1,3-dibutyl-2-thiobarbiturate)-trimethineoxonol]",displacement current time constant,L-M(TK^−) cells [1]; 20 C,~18 ms
same,activation energy of translocation,L-M(TK^−) cells [2]; from time constants at 20 C and 29 C,~17 kcal/mol
same,lectin fluorescence intensity quenched,Jurkat cell suspensions,up to 30%
same,displacement current time constant,astrocytoma cells,~18 ms
same,time constant of the FRET response,[3],~5 ms
CCCCN1C(=O)C(=CC=CC=Cc2c(O)n(CCCC)c(=S)n(CCCC)c2=O)C(=O)N(CCCC)C1=S [DiSBA-C4-(5)],translocation rate relative to the trimethine oxonol analogues,astrocytoma cells,six times faster than the corresponding trimethine oxonol
same,translocation time constant (crosses the membrane),astrocytoma cells,< 3 ms
same,displacement current time constant,astrocytoma cells,~2 ms
"CCCCCCN1C(=O)C(=CC=Cc2c(O)n(CCCCCC)c(=S)n(CCCCCC)c2=O)C(=O)N(CCCCCC)C1=S [DiSBA-C6-(3), (1,3-dihexyl-2-thiobarbiturate)trimethine oxonol]",time constant for the displacement current,"L-M(TK^−) cells [1]; 120 mV depolarization, holding potential −70 mV, 20 C",2 ms
same,"max, time constant for translocation at V=Vh","L-M(TK^−) cells [1]; fit to Eq. 2, FIG. 5, Vh=−5 mV and β=0.42",2.9 ms
same,translocation time constant,L-M(TK^−) cells [1],< 3 ms
same,displacement current time constant,L-M(TK^−) cells [1]; [4],about 2 ms
same,response time (in words),L-M(TK^−) cells [2]; oxonol as FRET donor to TR-WGA,same response time as FL-WGA/DiSBA-C6-(3)
same,signal change (in words),L-M(TK^−) cells [2]; oxonol as FRET donor to TR-WGA,only one half that for FL-WGA/DiSBA-C6-(3)
same,ratio changes,B104 neuroblastoma cells,5–15 %/100 mV
"CCCCCCN1C(=O)C(=CC=CC=Cc2c(O)n(CCCCCC)c(=S)n(CCCCCC)c2=O)C(=O)N(CCCCCC)C1=S [DiSBA-C6-(5), Bis-(1,3-dihexyl-2-thiobarbiturate)-pentamethineoxonol]","time constant for translocation, measured optically",1321N astrocytoma cells,0.383 ± 0.032 ms
same,response time,astrocytoma cells,less than 1 ms
same,translocation time constant (crosses the membrane),astrocytoma cells,~0.4 ms
CCCCCCCCCCN1C(=O)C(=CC=Cc2c(O)n(CCCCCCCCCC)c(=S)n(CCCCCCCCCC)c2=O)C(=O)N(CCCCCCCCCC)C1=S [DiSBA-C10-(3)],displacement currents (in words),"L-M(TK^−) cells [1]; compared with DiSBA-C6-(3), 20 C",approximately the same speed
same,translocation time constant,L-M(TK^−) cells [1],< 2 ms
same,displacement current time constant,L-M(TK^−) cells [1]; [4],about 2 ms
CCCCCN(CCCCC)c1ccc(/C=C/C=C/c2cc[n+](CCCCS(=O)(=O)[O-])cc2)cc1 [RH-421],fluorescence change,neuroblastoma,21 % /100 mV

# Reference: patent US7118899B2, “Detection of transmembrane potentials by optical methods” (The Regents of the University of California, priority 2001, dated 2006)
